Source: PubChem BioAssay (NCI)
Several values for one entry are separate records, joined by “and”; a condition that tells them apart may be missing. Equal entries are not always repeated.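 1) Cells in 96-well plates. 2) Compound, 48 h, 5 concentrations. 3) Linear interpolation between surrounding doses. 4) Unreached endpoint = highest concentration. At the GI50, growth is halved. The concentration for full growth arrest is given as TGI.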

Experiments:
Test in all cases: DTP human tumour cell line panel, 48 h
EKVX NSCLC = test system: EKVX NSCLC
HL-60(TB) leukemia = test system: HL-60(TB) leukemia
NCI-H522 lung = test system: NCI-H522 lung
RPMI-8226 leukemia = test system: RPMI-8226 leukemia
SF-539 CNS = test system: SF-539 CNS
HCT-116 colon = test system: HCT-116 colon
CCRF-CEM leukemia = test system: CCRF-CEM leukemia
HCT-15 colon = test system: HCT-15 colon
SK-MEL-28 melanoma = test system: SK-MEL-28 melanoma
MDA-N = test system: MDA-N

| SMILES | TGI (EKVX NSCLC) [µM] | TGI (HL-60(TB) leukemia) [µM] | TGI (NCI-H522 lung) [µM] | TGI (RPMI-8226 leukemia) [µM] | TGI (SF-539 CNS) [µM] | TGI (HCT-116 colon) [µM] | TGI (CCRF-CEM leukemia) [µM] | TGI (HCT-15 colon) [µM] | TGI (SK-MEL-28 melanoma) [µM] | TGI (MDA-N) [µM] | GI50 (NCI-H522 lung) | GI50 (EKVX NSCLC) [µM] | GI50 (HL-60(TB) leukemia) [µM] | GI50 (RPMI-8226 leukemia) [µM] | GI50 (SF-539 CNS) [µM] | GI50 (HCT-116 colon) [µM] | GI50 (CCRF-CEM leukemia) [µM] | GI50 (HCT-15 colon) [µM] | GI50 (SK-MEL-28 melanoma) [µM] |
| --- | --- | --- | --- | --- | --- | --- | --- | --- | --- | --- | --- | --- | --- | --- | --- | --- | --- | --- | --- |
| CC12CCC3C(CCC4CC(OC(=O)Cc5ccc(N(CCCl)CCCl)cc5)CCC43C)C1CCC(=O)N2 (centres undefined) | 30.5 | 22 | 28.3 | 35.3 | 29.4 | 28.3 | 22.7 | 28.3 | 30.9 | – | – | – | – | – | – | – | – | – | – |
| COc1cc2nc(-c3cccs3)oc(=O)c2cc1OC | > 100 | > 100 | > 100 | > 100 | > 100 | > 100 | > 100 | > 100 | > 100 | – | – | – | – | – | – | – | – | – | – |
| C(/C=C(\Nc1ccccc1)C12CC3CC(CC(C3)C1)C2)=Nc1ccccc1 | 39.4 | 32.1 | 24.3 | – | – | 27 | 8.38 | 28 | 47.1 | 30.9 | – | – | – | – | – | – | – | – | – |
| O=c1[nH]cnc2c1ncn2[C@@H]1C[C@@H]1CO | > 100 | > 100 | > 100 | – | > 100 | > 100 | > 100 | > 100 | > 100 | > 100 | – | – | – | – | – | – | – | – | – |
| Cn1ccnc1C(O)(c1nccn1C)c1nccn1C | > 100 | > 100 | > 100 | – | – | – | – | – | > 100 | – | – | – | – | – | – | – | – | – | – |
| CC(=O)O[C@H]1C(=O)[C@@]2(C)[C@H]([C@H](OC(=O)c3ccc(F)cc3)[C@]3(O)C[C@H](OC(=O)[C@H](O)[C@@H](NC(=O)c4ccccc4)c4ccccc4)C(C)=C1C3(C)C)[C@]1(OC(C)=O)CO[C@@H]1C[C@@H]2O | > 25 | 0.0149 | 0.585 | 0.0195 | 0.0604 | 0.381 | – | > 25 | > 25 | 0.00496 | – | – | – | – | – | – | – | – | – |
| O=C(NCCCN(CCCCN(CCCNC(=O)C(F)(F)F)Cc1ccc2ccccc2c1)Cc1ccc2ccccc2c1)C(F)(F)F | > 100 | – | > 100 | 7.15 | > 100 | > 100 | > 100 | > 100 | 5.88 | – | – | – | – | – | – | – | – | – | – |
| O=C(Oc1cc(=O)c(OC(=O)c2ccccc2)co1)c1ccccc1 | – | > 100 | > 100 | > 100 | > 100 | > 100 | – | > 100 | > 100 | > 100 | – | – | – | – | – | – | – | – | – |
| S=C(/N=c1\sc(Nc2ccc(Cl)cc2)nc2sc3c(c12)CCN(N1CCc2c(sc4nc(Nc5ccc(Cl)cc5)s/c(=N\C(=S)Nc5ccc(Cl)cc5)c24)C1)C3)Nc1ccc(Cl)cc1 | > 100 | – | > 100 | – | 35.6 | 31.7 | – | > 100 | > 100 | 30.8 | – | – | – | – | – | – | – | – | – |
| O=C(Cc1ccccc1)NN1C(=O)/C(=C\c2ccccc2)SC1=Nc1ccccc1 | > 100 | – | – | – | > 100 | > 100 | – | > 100 | > 100 | > 100 | – | – | – | – | – | – | – | – | – |
| CC1(C)C2CC(=O)C1(C)C(O)C2Br (centres undefined) | > 100 | > 100 | – | – | > 100 | > 100 | > 100 | > 100 | > 100 | > 100 | – | – | – | – | – | – | – | – | – |
| CC(=O)c1cccn1/C=C(\OC(=O)OC(C)(C)C)c1ccc[nH]1 | > 100 | 98.1 | > 100 | > 100 | – | > 100 | > 100 | > 100 | > 100 | > 100 | – | – | – | – | – | – | – | – | – |
| COc1c(O)c2c3c(c(C)cc(O)c3c1O)C(=O)C(O)(C(C)(C)C(C)=O)C2=O (centres undefined) | – | > 100 | > 100 | > 100 | > 100 | > 100 | > 100 | > 100 | > 100 | – | 49.7 µM and > 100 µM | – | – | – | – | – | – | – | – |
| c1ccc2c(c1)c1c(n2CCOCCN2CCOCC2)CCCC1 | > 100 | 51.9 | – | 53.9 | > 100 | > 100 | 69.4 | > 100 | 52 | > 100 | – | – | – | – | – | – | – | – | – |
| Cc1c(N2C(=O)C(Cl)C2c2ccc(Cl)cc2)c(=O)n(-c2ccccc2)n1C (centres undefined) | > 100 | > 100 | > 100 | 42.6 | > 100 | 36 | > 100 | – | – | 81.3 | – | – | – | – | – | – | – | – | – |
| CN(Cc1ccccc1)c1cc(=O)n(C)c(=O)[nH]1 | – | > 100 | > 100 | > 100 | > 100 | > 100 | > 100 | > 100 | > 100 | > 100 | – | – | – | – | – | – | – | – | – |
| C[C@]12CC[C@@H]3c4ccc(O)cc4CC[C@H]3[C@@H]1C/C(=C\c1ccncc1)[C@@H]2O | > 100 | 44.9 | 20.1 | 24.6 | – | > 100 | > 100 | 33.3 | > 100 | > 100 | – | – | – | – | – | – | – | – | – |
| CCOC(=O)c1c(-c2ccccc2)c(-c2ccccc2)cn1C | > 10 | > 10 | > 10 | – | > 10 | – | > 10 | > 10 | – | > 10 | – | – | – | – | – | – | – | – | – |
| CCCCn1cnc2c(c(CC#N)nn2-c2ccccc2)c1=N | > 100 | > 100 | > 100 | 73.4 | – | > 100 | > 100 | > 100 | > 100 | > 100 | – | – | – | – | – | – | – | – | – |
| CCN1CCCC(NCc2c3ccccc3c(CNC3CCCN(CC)C3)c3ccccc23)C1 (centres undefined) | 35.9 | 22.7 | 8.12 | 54.3 | 35.7 | 23.3 | 41.4 | 43.9 | 25.9 | – | – | – | – | – | – | – | – | – | – |
| Nc1nc(N)c(N=O)c(Nc2ccc(Br)cc2)n1 | > 100 | > 100 | > 100 | – | 56.5 | 37.8 | > 100 | > 100 | 68.6 | – | – | – | – | – | – | – | – | – | – |
| Cc1cn(-c2cc(C(=O)Nc3cccc(-n4ccc5c(NC(=O)c6ccccc6)nccc54)c3)cc(C(F)(F)F)c2)cn1 | 30.2 | 2.5 | 8.21 | 4.02 | 1.51 | 1.35 | 2.09 | 4.71 | 5.41 | – | 0.375 µM | 2.32 | 0.451 | 0.426 | 0.332 | 0.291 | 0.299 | 0.29 | 0.546 |
